We go through 26 molecules from patent US7491733B2, “Bicyclic guanidine derivatives and therapeutic uses thereof” (Merck Patent GmbH, priority 2001, dated 2009).

One series relates to Nostz Rats. In words: Oral antidiabetic activity in Nostz rats (non-insulin-dependent diabetes induced by neonatal steptozotocin); change in glycaemia. Format: in vivo. Conditions: Rattus norvegicus, blood sample two hours after the final administration, diabetic rats; for change in vivo at 20 mg/kg: 20 mg/kg/day; for change in vivo at 200 mg/kg: 200 mg/kg/day. As for the experimental part:
Study of the Antidiabetic Activity in Nostz Rats
The oral antidiabetic activity of the compounds of the formula (I) was determined on an experimental model of non-insulin-dependent diabetes, induced in the rats with steptozotocin.
The model of non-insulin-dependent diabetes is obtained in the rats by means of a neonatal injection (on the day of birth) of steptozotocin.
The diabetic rats used are eight weeks old. The animals are housed, from the day of birth to the day of the experiment, in an animal house at a regulated temperature of 21 to 22° C. and subjected to a fixed cycle of light (from 7 a.m. to 7 p.m.) and darkness (from 7 p.m. to 7 a.m.). Their food consisted of a maintenance diet, and water and food were given “ad libitum”, with the exception of fasting two hours before the tests, during which period the food is removed (post-absorptive state).
The rats are treated orally for one (D1) or four (D4) days with the test product. Two hours after the final administration of the product and 30 minutes after the animals have been anaesthetised with pentobarbital sodium (Nembutal®), a 300 μl blood sample is taken from the end of the tail.
By way of example, results obtained are collated in Table 2.

Setting [1] is: 24 h, one day of treatment (D1), read-out: percentage change in the glycaemia on D1 relative to D0.
Setting [2] is: 96 h, four days of treatment (D4), read-out: percentage change in the glycaemia on D4 relative to D0.

The structures appear in SMILES notation. Structures can show the parent of a compound that is named as a salt. Where two headings read alike, the source gives them in different places.

Usually melting point stands for the temperature, or range, at which the solid turns liquid. In turn, `N=C(N)NCC1Cc2ccccc2N1` (centres unmarked) (as salt: hemisulfate) [Compound 8] displayed a melting point of 189 to 191 °C.
Same read-out and setting: for `CN(Cc1nc2ccccc2s1)C(=N)N` (as salt: hydrochloride) [Compound 1, 2-(aminoiminomethyl(methylamino)methyl)-benzothiazole hydrochloride] the value was 203 to 205 °C.
On the same count and under the same terms, as for `N=C(N)NCc1nc2ccccc2[nH]1` (as salt: hydrochloride) [Compound 2, 2-(aminoiminomethylamino)methylbenzimidazole hydrochloride], the figure is 171 to 173 °C.
`N=C(N)NCc1nc2ccccc2s1` (as salt: hydrochloride) [Compound 5] registered a melting point of 196 to 198 °C.
The same measure, in the same setting: as for `CN(Cc1nc2ccccc2[nH]1)C(=N)N` (as salt: hydrochloride) [Compound 6], the figure is 253 to 255 °C.
Still for that read-out and setting: as for `Cn1c(CNC(=N)N)cc2cc(F)ccc21` (as salt: hydrochloride) [Compound 14], the figure is 181 to 183 °C; as for `CN(CC1=Cc2ccccc2C1)C(=N)N` (as salt: hydrochloride) [Compound 16], 209 to 211 °C; as for `N=C(N)NCC1Cc2ccccc2C1` (as salt: sulfate) [Compound 3, 2-(aminoiminomethylamino)methylindane sulfate], 231 to 233 °C.
Still for that read-out and setting: as for `COc1cc2c(cc1OC)CC(CNC(=N)N)C2` (as salt: sulfate) [Compound 11], the figure is 191 to 193 °C.
The molecule `COc1ccc2c(c1)cc(CNC(=N)N)n2C` (as salt: sulfate) [Compound 12] displayed a melting point of 233 to 235 °C.
Still for that read-out and setting: for `COc1ccc2[nH]c(CNC(=N)N)cc2c1` (as salt: sulfate) [Compound 13] the value was 213 to 215 °C; for `N=C(N)NCc1cc2ccccc2o1` (as salt: sulfate) [Compound 15], 244 to 247 °C; for `N=C(N)NCC1Cc2cc(F)c(F)cc2C1` (as salt: sulfate) [Compound 17], above 250 °C.
`CN(Cc1nc2ccccc2s1)C(=N)N` [Compound 1, 2-(aminoiminomethyl(methylamino)methyl)-benzothiazole hydrochloride]: in the series with Nostz Rats (setting [1]), the change in vivo at 20 mg/kg came to 5% and the change in vivo at 200 mg/kg was -9%. For the same molecule, in the series on Nostz Rats (setting [2]), the change in vivo at 20 mg/kg is -4% and the change in vivo at 200 mg/kg was -23%.
In the same order, the values of `N=C(N)NCc1nc2ccccc2[nH]1` [Compound 2, 2-(aminoiminomethylamino)methylbenzimidazole hydrochloride] are -17%, -10%, -13% and -25%.
In the same order, the values of `N=C(N)NCC1Cc2ccccc2C1` [Compound 3, 2-(aminoiminomethylamino)methylindane sulfate] are 2%, -14%, -10% and -29%.
In the same order, the values of `N=C(N)NCc1nc2ccccc2s1` [Compound 5] are -18%, -30%, -3% and -26%.
In the case of `CN(Cc1nc2ccccc2[nH]1)C(=N)N` [Compound 6], in the series on Nostz Rats (setting [1]), the change in vivo at 20 mg/kg amounted to 3% and the change in vivo at 200 mg/kg was -6%. Besides, in the series on Nostz Rats (setting [2]), the change in vivo at 20 mg/kg was determined as 0% and the change in vivo at 200 mg/kg is -16%.
In the same order, the values of `N=C(N)NCc1cc2ccccc2[nH]1` [Compound 7] are -5%, -19%, -9% and -28%.
In the same order, the values of `N=C(N)NCC1Cc2ccccc2N1` (centres unmarked) [Compound 8] are -7%, -10%, -12% and -9%.
The molecule `N=C(N)NCC1Cc2ccccc2O1` (centres unmarked) [Compound 9] yielded a melting point of 139 to 141 °C.
Consider `N=C(N)NCC1Cc2ccccc2S1` (centres unmarked) [Compound 10], for which the melting point lay within 187 to 189 °C. In the series with Nostz Rats (setting [1]), the change in vivo at 20 mg/kg was -3% and the change in vivo at 200 mg/kg was -21%. In addition, in the series with Nostz Rats (setting [2]), the change in vivo at 20 mg/kg is -5% and the change in vivo at 200 mg/kg was -25%.
Take `COc1cc2c(cc1OC)CC(CNC(=N)N)C2` [Compound 11]: in the series with Nostz Rats (setting [1]), the change in vivo at 20 mg/kg is -1% and the change in vivo at 200 mg/kg is -8%. In the series with Nostz Rats (setting [2]), the change in vivo at 20 mg/kg is -8% and the change in vivo at 200 mg/kg is -14%.
With `COc1ccc2c(c1)cc(CNC(=N)N)n2C` [Compound 12], the change in vivo at 200 mg/kg in the series with Nostz Rats (setting [1]) is -22%; in the series with Nostz Rats (setting [2]), -26%.
In the same order, the values of `COc1ccc2[nH]c(CNC(=N)N)cc2c1` [Compound 13] are -16% and -26%.
As to `N=C(N)NCc1cc2ccccc2o1` [Compound 15], in the series with Nostz Rats (setting [1]), the change in vivo at 20 mg/kg was -23% and the change in vivo at 200 mg/kg is -29%. Further, in the series with Nostz Rats (setting [2]), the change in vivo at 20 mg/kg is -28% and the change in vivo at 200 mg/kg is -31%.
